The text below walks through data of ChEMBL document CHEMBL1201862, “PubChem BioAssay data set” (2004).

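How tested: cells in 96-well plates exposed to compound for 48 hours at five concentrations. GI50 is the concentration that inhibits growth by half.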 Active and inactive are the calls of the source. No stated cut-off is given here; in the data, active = GI50 up to about 1.1 µM and inactive = higher. A value given as a limit tells only on which side of the number the result lay.

Some test systems named below: HCT-116; K562; OVCAR-3; EKVX; CAKI-1; M14; Malme-3M; RXF 393; SNB-19; UACC-62; HL-60; NCI-H460; ACHN; CCRF-CEM; SW-620; A549; NCI-H522; PC-3; NCI/ADR-RES.
Holding throughout (assay): NCI anticancer screen, dose series, 48 h

For `CCOC1=C2N=C(C(CC)c3ccccc3F)N=C2C(=O)c2ccccc21` (configuration not stated), the GI50 in the assay on HCT-116, with K562, in the assay on OVCAR-3, in the assay with EKVX, in the assay on CAKI-1 and in the assay with M14 was > 100 µM (inactive) throughout. Further, the GI50 with Malme-3M was > 100 µM (inactive); in the assay with RXF 393, 2.98 µM (inactive); in the assay with SNB-19 it was > 100 µM (inactive); with UACC-62, > 100 µM (inactive); in the assay with HL-60 it was > 100 µM (inactive); in the assay on NCI-H460, > 100 µM (inactive). Moreover, the GI50 in the assay on ACHN, in the assay with CCRF-CEM, in the assay with SW-620, in the assay on A549 and in the assay with NCI-H522 was > 100 µM (inactive) in each case.
In the case of `Cc1ccc(S(=O)(=O)C(CC(NC=O)S(=O)(=O)c2ccc(C)cc2)NC=O)cc1` (configuration not stated), the GI50 with HCT-116, in the assay on K562, in the assay with OVCAR-3, in the assay with EKVX, in the assay with CAKI-1 and in the assay with M14 was > 100 µM (inactive) each time. The GI50 in the assay on Malme-3M, in the assay with RXF 393, with SNB-19, with UACC-62, in the assay with HL-60 and in the assay on NCI-H460 was > 100 µM (inactive) in each case. In addition, the GI50 in the assay on CCRF-CEM is 62.4 µM (inactive); in the assay on SW-620 it was > 100 µM (inactive); in the assay with A549, > 100 µM (inactive); in the assay on NCI-H522, > 100 µM (inactive).
Take `CCN1C[C@]2(C)CC[C@H](OC)C34C1C([C@H](OC(C)=O)[C@@H]32)[C@@]1(OC)C[C@H](OC)[C@H]2C[C@@H]4[C@@H]1[C@H]2O`: the GI50 in the assay on HCT-116 is > 100 µM (inactive); with K562, 92.5 µM (inactive); in the assay with EKVX, > 100 µM (inactive); with CAKI-1 it was > 100 µM (inactive); in the assay on M14, > 100 µM (inactive); in the assay on Malme-3M it was > 100 µM (inactive). In addition, the GI50 with RXF 393, in the assay with SNB-19, in the assay on UACC-62, in the assay with HL-60, in the assay with NCI-H460 and in the assay with ACHN was > 100 µM (inactive) in each case. Also, the GI50 was > 100 µM (inactive) with CCRF-CEM, 54.2 µM (inactive) in the assay on SW-620, > 100 µM (inactive) in the assay on A549 and > 100 µM (inactive) in the assay with NCI-H522.
Consider `COc1ccc(/C=C2\CCC(C)(CN(C)C)C2=O)cc1` (configuration not stated), for which the GI50 with HCT-116 was > 100 µM (inactive); in the assay with K562, 64 µM (inactive); with OVCAR-3, > 100 µM (inactive); in the assay on EKVX, > 100 µM (inactive); in the assay with CAKI-1, 18.7 µM (inactive); in the assay with M14 it was > 100 µM (inactive). Also, the GI50 was > 100 µM (inactive) in the assay with Malme-3M; > 100 µM (inactive) in the assay on RXF 393; 6.18 µM (inactive) in the assay on SNB-19; > 100 µM (inactive) in the assay on UACC-62; 56.4 µM (inactive) in the assay with HL-60; > 100 µM (inactive) with NCI-H460. Also, the GI50 in the assay on ACHN was > 100 µM (inactive); in the assay with SW-620 it was > 100 µM (inactive); in the assay on A549 it was > 100 µM (inactive); in the assay with NCI-H522, 16.3 µM (inactive).
Take `CSc1nnc(C(C#N)C#N)nn1`: the GI50 in the assay with HCT-116, in the assay with K562, with OVCAR-3, in the assay with EKVX, with CAKI-1 and in the assay on M14 was > 100 µM (inactive) throughout. The GI50 with Malme-3M, with RXF 393, in the assay with SNB-19, in the assay on UACC-62, with HL-60 and with NCI-H460 was > 100 µM (inactive) each time. Moreover, the GI50 in the assay on CCRF-CEM, in the assay with SW-620, with A549 and in the assay on NCI-H522 was > 100 µM (inactive) in each case.
With `CCc1ccccc1NC(=O)C1=C(C)NC(C)=C(C(=O)Nc2c(CC)cccc2CC)C1c1ccc2c(c1)OCO2` (configuration not stated), the GI50 was 16.8 µM (inactive) with HCT-116; 22.7 µM (inactive) with K562; 17.8 µM (inactive) with OVCAR-3; 24.2 µM (inactive) in the assay with EKVX; 19.5 µM (inactive) with CAKI-1; 16.4 µM (inactive) in the assay on M14. Moreover, the GI50 in the assay with Malme-3M was 16.5 µM (inactive); in the assay with RXF 393 it was 12.4 µM (inactive); in the assay with SNB-19 it was 24.9 µM (inactive); in the assay on HL-60, 23 µM (inactive); with NCI-H460, 16.6 µM (inactive); in the assay with ACHN, 20.5 µM (inactive). The GI50 was 19.1 µM (inactive) in the assay on CCRF-CEM, 18.1 µM (inactive) with SW-620, 17.6 µM (inactive) in the assay with A549 and 16.2 µM (inactive) with NCI-H522.
Consider `COc1cc2c(c(OC)c1OC)-c1ccc(SC)c(=O)cc1[C@@H](NCc1ccc([N+](=O)[O-])cc1)CC2`, for which the GI50 was 0.00369 µM (active) in the assay with HCT-116; 0.00318 µM (active) with K562; 0.003 µM (active) in the assay on OVCAR-3; 0.0074 µM (active) with EKVX; 0.01 µM (active) with CAKI-1; 0.00404 µM (active) in the assay on M14. In addition, the GI50 in the assay with Malme-3M was 0.00583 µM (active); with RXF 393, 0.00241 µM (active); in the assay with SNB-19, 0.0308 µM (active); in the assay with UACC-62, 0.00345 µM (active); in the assay on HL-60 it was 0.00202 µM (active); in the assay on NCI-H460, 0.00318 µM (active). Besides, the GI50 in the assay with ACHN is 0.00959 µM (active); with CCRF-CEM it was 0.00277 µM (active); in the assay with SW-620 it was 0.00342 µM (active); with A549, 0.00748 µM (active); in the assay with NCI-H522 it was 0.00313 µM (active).
`C/C=C/C#CC#C/C=C/C=C/C(O)CCO` (configuration not stated): the GI50 with HCT-116, in the assay with K562, in the assay on OVCAR-3, in the assay on EKVX, in the assay with CAKI-1 and with M14 was > 23.1 µM (inactive) each time. The GI50 with Malme-3M is > 23.1 µM (inactive); in the assay on RXF 393, > 23.1 µM (inactive); with SNB-19, > 23.1 µM (inactive); in the assay on UACC-62, > 23.1 µM (inactive); with HL-60, > 18.1 µM (inactive); with NCI-H460, > 23.1 µM (inactive). Also, the GI50 in the assay on ACHN, with CCRF-CEM, in the assay with SW-620, with A549 and in the assay with NCI-H522 was > 23.1 µM (inactive) throughout.
For `C=CCNC(=S)NNC(=O)c1c(C)nc2sccn12`, the GI50 in the assay with HCT-116, in the assay with K562, with OVCAR-3, in the assay with EKVX, in the assay with CAKI-1 and with Malme-3M was > 100 µM (inactive) throughout. Also, the GI50 in the assay with RXF 393, in the assay on SNB-19, in the assay on UACC-62, with HL-60, in the assay on NCI-H460 and in the assay with ACHN was > 100 µM (inactive) each time. The GI50 in the assay with CCRF-CEM, in the assay with SW-620, in the assay on A549 and in the assay with NCI-H522 was > 100 µM (inactive) each time.
Turning to `Cc1cc(=O)n(-c2ccccc2C)c(C)n1`, the GI50 in the assay with HCT-116, with K562, in the assay on OVCAR-3, in the assay with EKVX, in the assay on CAKI-1 and in the assay on M14 was > 100 µM (inactive) each time. The GI50 in the assay with Malme-3M, in the assay with RXF 393, in the assay on SNB-19, in the assay with UACC-62, in the assay with HL-60 and in the assay on NCI-H460 was > 100 µM (inactive) throughout. The GI50 in the assay on ACHN, in the assay on CCRF-CEM, in the assay with SW-620, in the assay on A549 and in the assay on NCI-H522 was > 100 µM (inactive) in each case.
As for `NNC(=O)N/N=C1\C(=O)N(c2ccc(Cl)c(Cl)c2)C(=O)C(=O)C1c1nc2ccccc2s1` (configuration not stated), the GI50 in the assay with HCT-116, with OVCAR-3, in the assay on EKVX, with CAKI-1, in the assay on M14 and in the assay on Malme-3M was > 100 µM (inactive) each time. Besides, the GI50 is 38.5 µM (inactive) in the assay on RXF 393; > 100 µM (inactive) in the assay with SNB-19; > 100 µM (inactive) with UACC-62; > 100 µM (inactive) in the assay with HL-60; > 100 µM (inactive) in the assay on NCI-H460; > 100 µM (inactive) with ACHN. The GI50 with CCRF-CEM was 50.2 µM (inactive); in the assay with SW-620, > 100 µM (inactive); with A549, > 100 µM (inactive); in the assay with NCI-H522, > 100 µM (inactive).
Consider `Cc1ccc(Nc2[nH]c(=O)[nH]c(=O)c2C)cc1Cl`, for which the GI50 is > 100 µM (inactive) with HCT-116; > 100 µM (inactive) with K562; 62.1 µM (inactive) in the assay on OVCAR-3; 11 µM (inactive) in the assay with EKVX; 67.3 µM (inactive) with CAKI-1; > 100 µM (inactive) in the assay on M14. The GI50 was > 100 µM (inactive) with Malme-3M; > 100 µM (inactive) with RXF 393; > 100 µM (inactive) in the assay with SNB-19; 59.3 µM (inactive) in the assay on UACC-62; > 100 µM (inactive) in the assay with NCI-H460; > 100 µM (inactive) in the assay with ACHN. The GI50 is 67.9 µM (inactive) in the assay with PC-3; > 100 µM (inactive) in the assay on SW-620; > 100 µM (inactive) in the assay with A549; > 100 µM (inactive) in the assay with NCI/ADR-RES; > 100 µM (inactive) in the assay with NCI-H522.
